Test results: publication PMC9610081, “Design and Synthesis of Aminopyrimidinyl Pyrazole Analogs as PLK1 Inhibitors Using Hybrid 3D-QSAR and Molecular Docking” (Pharmaceuticals, 2022)

Target: PLK1 (polo-like kinase 1) (Homo sapiens, UniProt P53350)
Assay: radiometric […]-ATP kinase assay, casein substrate, […] ATP (Reaction Biology)
Type: biochemical

PLK1 (polo-like kinase 1), sequence (P53350 2-603): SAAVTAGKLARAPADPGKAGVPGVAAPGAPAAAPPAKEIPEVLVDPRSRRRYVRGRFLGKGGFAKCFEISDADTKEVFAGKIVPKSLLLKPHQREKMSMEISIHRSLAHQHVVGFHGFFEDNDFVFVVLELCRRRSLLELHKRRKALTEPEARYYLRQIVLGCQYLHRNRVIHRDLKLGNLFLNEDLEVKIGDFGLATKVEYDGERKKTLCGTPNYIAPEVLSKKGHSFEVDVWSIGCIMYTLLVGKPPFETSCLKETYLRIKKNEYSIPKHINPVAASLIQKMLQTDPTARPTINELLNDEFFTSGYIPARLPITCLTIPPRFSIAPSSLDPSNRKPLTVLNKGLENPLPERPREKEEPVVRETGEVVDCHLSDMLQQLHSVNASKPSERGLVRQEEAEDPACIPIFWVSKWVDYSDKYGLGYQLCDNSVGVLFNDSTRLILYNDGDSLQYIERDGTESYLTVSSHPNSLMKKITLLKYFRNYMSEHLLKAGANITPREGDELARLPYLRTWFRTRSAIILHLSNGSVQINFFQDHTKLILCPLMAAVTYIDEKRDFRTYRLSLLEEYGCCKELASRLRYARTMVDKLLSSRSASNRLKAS

SMILES	IC50
CN(C)C(=O)N1CCc2ccc(Nc3nccc(-n4cc(/C=C/c5ccccc5)c(C(N)=O)n4)n3)cc21 [D40, (E)-6-((4-(3-carbamoyl-4-styryl-1H-pyrazol-1-yl)pyrimidin-2-yl)amino)-N,N-dimethylindoline-1-carboxamide]	359 nM
CCOC(=O)c1nn(-c2ccnc(Nc3ccc4c(c3)N(C(=O)N(C)C)CC4)n2)cc1/C=C/c1ccccc1 [D39, Ethyl (E)-1-(2-((1-(dimethylcarbamoyl)indolin-6-yl)amino)pyrimidin-4-yl)-4-styryl-1H-pyrazole-3-carboxylate]	1430 nM
